{
  "source": "EPA's ToxValDB 9.5 (doi:10.2903/j.efsa.2009.269r)",
  "key": {"[1]": {"test_system": "Aphidius rhopalosiphi", "experiment": "LR50; higher = less toxic", "settings": "not reported; mortality"}, "[2]": {"test_system": "Canidae", "settings": "chronic; duration: 1 years; oral; Dog Other; organ weight"}, "[3]": {"test_system": "Oncorhynchus mykiss"}, "[4]": {"test_system": "Apis mellifera", "settings": "acute; duration: 48 hours; dermal; mortality"}, "[5]": {"test_system": "Folsomia candida", "settings": "chronic/long-term; reproduction"}, "[6]": {"test_system": "Daphnia magna", "settings": "chronic/long-term; duration: 21 days; reproduction"}, "[7]": {"test_system": "Colinus virginianus"}, "[8]": {"test_system": "Anas platyrhynchos", "settings": "acute; oral; unspecified; mortality"}, "[9]": {"test_system": "Rattus norvegicus", "settings": "for NOAEL: histopathology: nonneoplastic"}, "[10]": {"test_system": "Tagia sp.", "settings": "mortality"}, "[11]": {"test_system": "Bibionidae", "settings": "chronic/long-term; duration: 28 days"}},
  "data": [
    {"smiles": "Clc1ccccc1-c1nnc(-c2ccccc2Cl)nn1", "note": "[Clofentezine]", "values": [
      {"measurement": "LR50", "setting": "[1]", "value": 36.2, "unit": "g/ha"},
      {"measurement": "NOAEL", "setting": "[2]", "value": 1.7, "unit": "mg/kg-day"},
      {"measurement": "LC50", "setting": "[3]; acute, duration: 96 hours, mortality", "value": "> 0.0146", "unit": "µg/mL"},
      {"measurement": "NOEC", "setting": "[3]; chronic/long-term, duration: 97 days", "value": 0.007, "unit": "mg/L"},
      {"measurement": "LD50", "setting": "[4]", "value": "> 84.5", "unit": "µg/piece"},
      {"measurement": "NOEC", "setting": "[5]", "value": 160, "unit": "mg/kg"},
      {"measurement": "NOEC", "setting": "[6]", "value": 0.025, "unit": "mg/L"},
      {"measurement": "LC50", "setting": "[7]; acute, oral, diet, mortality", "value": "> 4000", "unit": "mg/kg-day"},
      {"measurement": "NOEC", "setting": "[7]; reproduction developmental", "value": 7.62, "unit": "mg/kg-day"},
      {"measurement": "LD50", "setting": "[8]", "value": "> 3000", "unit": "mg/kg-day"},
      {"measurement": "LD50", "setting": "[9]; acute, oral, mortality", "value": "> 5200", "unit": "mg/kg-day"},
      {"measurement": "NOEC", "setting": "[9]; chronic", "value": 40, "unit": "mg/kg-day"},
      {"measurement": "NOAEL", "setting": "[9]; chronic, duration: 2 years", "value": 2, "unit": "mg/kg-day"},
      {"measurement": "NOAEL", "setting": "[9]; subchronic, duration: 90 days, oral", "value": 2.65, "unit": "mg/kg-day"},
      {"measurement": "LC50", "setting": "[10]; acute", "value": 430, "unit": "mg/kg"},
      {"measurement": "NOEC", "setting": "[10]; chronic/long-term", "value": 5310, "unit": "mg/kg"},
      {"measurement": "NOEC", "setting": "[11]", "value": 0.5, "unit": "mg/L"}
    ]}
  ]
}
